Consider 2 molecules from PMC4754667 (Clinical genitourinary cancer, 2013).

As usually defined, the AUC(0-t) is exposure summed from dosing to a finite time, without extrapolation to infinity. For orientation: Cmax means the highest concentration seen after dosing. A word on the Tmax: it is the time from dosing to the highest level.

One data set in a line: clinical. The following applies: human, in vivo, Mean.
Another data set deals with Ang2. Particulars: patients with metastatic RCC under sunitinib treatment; cited from earlier work.

`CNC(=O)c1cc(Oc2ccc(NC(=O)Nc3ccc(Cl)c(C(F)(F)F)c3)cc2)ccn1` [Sorafenib, sorafenib]: the AUC(0-t) in the data set “clinical” (3 mg/kg, Sorafenib AUC (AUC0-12)) stood at 2.58 µg·h/mL; in “clinical” (10 mg/kg, Sorafenib AUC (AUC0-12)), 3.13 µg·h/mL. Also, the Cmax in “clinical” (3 mg/kg, Sorafenib Cmax) amounted to 0.466 µg/mL; in the data set “clinical” (10 mg/kg, Sorafenib Cmax), 0.559 µg/mL. Besides, the Tmax in the data set “clinical” (3 mg/kg, Sorafenib Tmax) is 1.1 h; in “clinical” (10 mg/kg, Sorafenib Tmax), 1 h.

Consider `CCN(CC)CCNC(=O)c1c(C)[nH]c(/C=C2\C(=O)Nc3ccc(F)cc32)c1C` [Sunitinib, sunitinib], for which, in the data set on Ang2, the “decrease in plasma Ang2 levels” value is 80%. Besides, the AUC(0-t) in the data set “clinical” (3 mg/kg, Sunitinib AUC (AUC0-24)) amounted to 1.3 µg·h/mL; in the data set “clinical” (10 mg/kg, Sunitinib AUC (AUC0-24)) it was 1.25 µg·h/mL. Besides, the Cmax in the data set “clinical” (3 mg/kg, Sunitinib Cmax) was 0.0642 µg/mL; in “clinical” (10 mg/kg, Sunitinib Cmax), 0.0618 µg/mL. Moreover, the Tmax in “clinical” (3 mg/kg, Sunitinib Tmax) turned out to be 8 h; in the data set “clinical” (10 mg/kg, Sunitinib Tmax), 8.1 h.
